Laboratory results: US10639276B2, “Liposomes with ginsenoside as membrane material and preparations and use thereof” (SHANGHAI GINPOSOME PHARMATECH CO., LTD., priority 2015, dated 2020)

Legend:
Assay in all cases: Cell survival rate, cell experiment in vitro (MTT)
[1] = tested on: paclitaxel-resistant human pancreatic cancer cell line (BxPC-3/T); assay type: cell-based
Procedure: The new recovery BxPC-3 cells were cultured for two generations or three generations under conventional conditions to make the cells grow stably.

[2] = tested on: human ovarian cancer cell line (A2780)
Procedure: (§1) Assay of cell experiment in vitro: tumor cells at logarithmic growth phase were collected, resuspended in a DMEM complete culture-medium (containing 10% fetal bovine serum, 100 U/ml penicillin, 100 μg/ml streptomycin) and a final concentration was 4×10^4 cells/ml. In a 96-well cell culture plate, 200 μl above cell suspension was added into each well (8×10^3 cells/well), and cultured for 48 h in a cell incubator at 37° C. filled with 5% CO2. The DMEM complete culture-medium was respectively replaced with 200 μL antitumor drug with different concentrations. The final concentrations of the drugs were set no less than six groups. The DMEM complete culture-medium was as the negative control group. Each concentration was set 4 wells and the experiment was repeated for 3 times. 20 μl 5 mg/mL MTT solution was added into each well after the cells were cultured for 72 h in a cell incubator at 37° C. filled with 5% CO2. The supernatant was discarded after it was further cultured for 4 h in a cell incubator. 150 μl DMSO was added into each well, shaked for 10 min. An OD was determined at 490 nm by a continuous spectrum multifunctional microplate reader (Tecan infinite M 200 TECAN, Switzerland). The cell survival rate was calculated by the following formula: (the cell survival rate (%)=ODdrug/ODcontrol×100%). Cell survival rate (%)=OD490(sample)/OD490(control)×100%;
(§2) Wherein OD490(sample) is the OD of the experimental group, OD490(control) is the OD of the blank control group.

[3] = tested on: paclitaxel-resistant human ovarian cancer cell line (A2780/T)
Procedure: as §1, §2

CC(=O)O[C@H]1C(=O)[C@@]2(C)[C@H]([C@H](OC(=O)c3ccccc3)[C@]3(O)C[C@H](OC(=O)[C@H](O)[C@@H](NC(=O)c4ccccc4)c4ccccc4)C(C)=C1C3(C)C)[C@]1(OC(C)=O)CO[C@@H]1C[C@@H]2O [Taxol, paclitaxel]
Cell Viability ([1]; C (μM): Taxol + Rg5 1.5625 + 9.375, Taxol 1.5625, Blank Rg5 9.375): 0.85 | Cell Viability ([1]; C (μM): Taxol + Rg5 12.5 + 75, Taxol 12.5, Blank Rg5 75): 0.639 | Cell Viability ([1]; C (μM): Taxol + Rg5 25 + 150, Taxol 25, Blank Rg5 150): 0.454 | Cell Viability ([1]; C (μM): Taxol + Rg5 50 + 300, Taxol 50, Blank Rg5 300): 0.272 | Cell Viability ([1]; C (μM): Taxol + Rg5 200 + 1200, Taxol 200, Blank Rg5 1200): 0.15 | Cell Viability ([1]; C (μM): Taxol + Rg5 400 + 2400, Taxol 400, Blank Rg5 2400): 0.134 | Cell Viability ([2]; C (μM): Taxol + Rg5 0.001953 + 0.011719, Taxol 0.001953, Blank Rg5 0.011719, Abraxane 0.001953): 0.866 | Cell Viability ([2]; C (μM): Taxol + Rg5 0.007813 + 0.046875, Taxol 0.007813, Blank Rg5 0.046875, Abraxane 0.007813): 0.818 | Cell Viability ([2]; C (μM): Taxol + Rg5 0.015625 + 0.09375, Taxol 0.015625, Blank Rg5 0.09375, Abraxane 0.015625): 0.673 | Cell Viability ([2]; C (μM): Taxol + Rg5 0.03125 + 0.1875, Taxol 0.03125, Blank Rg5 0.1875, Abraxane 0.03125): 0.443 | Cell Viability ([2]; C (μM): Taxol + Rg5 0.25 + 1.5, Taxol 0.25, Blank Rg5 1.5, Abraxane 0.25): 0.204 | Cell Viability ([2]; C (μM): Taxol + Rg5 0.5 + 3, Taxol 0.5, Blank Rg5 3, Abraxane 0.5): 0.185 | Cell Viability ([2]; C (μM): Taxol + Rg5 1 + 6, Taxol 1, Blank Rg5 6, Abraxane 1): 0.133 | Cell Viability ([3]; C (μM): Taxol + Rg5 1.5625 + 9.375, Taxol 1.5625, Blank Rg5 9.375, Abraxane 1.5625): 0.856 | Cell Viability ([3]; C (μM): Taxol + Rg5 6.25 + 37.5, Taxol 6.25, Blank Rg5 37.5, Abraxane 6.25): 0.654 | Cell Viability ([3]; C (μM): Taxol + Rg5 12.5 + 75, Taxol 12.5, Blank Rg5 75, Abraxane 12.5): 0.393 | Cell Viability ([3]; C (μM): Taxol + Rg5 400 + 2400, Taxol 400, Blank Rg5 2400, Abraxane 400): 0.139
